{
  "source": "patent US20100286038A1",
  "about": "“FORMULATION CONTAINING CYCLIN-DEPENDENT KINASE INHIBITING COMPOUND AND METHOD OF TREATING TUMORS USING THE SAME” (priority 2007, published 2010)",
  "key": {"[1]": {"tested_on": "A2780 ovarian carcinoma xenografts", "test": "A2780 xenograft ovarian cancer model", "type": "in vivo, nude mice"}, "[2]": {"tested_on": "A2780 ovarian cancer cell cultures", "conditions": "2 hours of exposure, 6 hour washout; no increase up to 5.0 micromolar", "experimental": "After the 6 hour washout period, cell extracts were prepared and evaluated by fluorometric assay for activated caspases (RFLU)."}, "AMPK": {"tested_on": "AMPK", "test": "Upstate kinase Profiler counter-screening", "type": "biochemical"}, "CaMKII": {"tested_on": "CaMKII", "type": "biochemical"}, "Fes": {"target": "T1, Fes (Homo sapiens, UniProt P07332)", "T1 construct": "purchased Upstate", "T1 sequence (P07332 whole entry, species assumed)": "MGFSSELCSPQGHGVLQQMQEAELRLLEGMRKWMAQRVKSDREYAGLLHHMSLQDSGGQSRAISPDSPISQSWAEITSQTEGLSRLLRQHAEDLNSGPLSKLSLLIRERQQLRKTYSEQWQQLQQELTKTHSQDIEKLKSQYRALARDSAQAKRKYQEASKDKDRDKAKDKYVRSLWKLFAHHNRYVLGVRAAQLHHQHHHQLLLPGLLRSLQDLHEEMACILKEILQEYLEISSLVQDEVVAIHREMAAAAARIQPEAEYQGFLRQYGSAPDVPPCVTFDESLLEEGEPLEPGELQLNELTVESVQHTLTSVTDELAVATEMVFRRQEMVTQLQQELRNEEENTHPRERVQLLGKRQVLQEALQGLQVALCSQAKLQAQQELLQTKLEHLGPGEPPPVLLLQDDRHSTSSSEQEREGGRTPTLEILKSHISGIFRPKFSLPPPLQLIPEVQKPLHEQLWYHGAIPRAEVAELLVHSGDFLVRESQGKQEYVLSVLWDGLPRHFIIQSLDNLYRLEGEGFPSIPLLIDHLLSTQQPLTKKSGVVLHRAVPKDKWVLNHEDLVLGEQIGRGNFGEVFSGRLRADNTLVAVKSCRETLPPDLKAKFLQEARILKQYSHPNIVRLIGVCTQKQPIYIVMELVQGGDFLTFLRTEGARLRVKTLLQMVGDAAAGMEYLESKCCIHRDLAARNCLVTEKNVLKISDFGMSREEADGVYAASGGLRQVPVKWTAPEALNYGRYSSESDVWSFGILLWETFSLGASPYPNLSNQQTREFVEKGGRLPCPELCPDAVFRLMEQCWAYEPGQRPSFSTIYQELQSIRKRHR", "test": "Upstate kinase Profiler counter-screening", "type": "biochemical"}, "PKCα": {"target": "T2, PKCα (Homo sapiens, UniProt P17252)", "T2 construct": "purchased Upstate", "test": "Upstate kinase Profiler counter-screening", "type": "biochemical"}, "YES": {"target": "T3, YES (Homo sapiens, UniProt P07947)", "T3 construct": "purchased Upstate", "T3 sequence (P07947 whole entry, species assumed)": "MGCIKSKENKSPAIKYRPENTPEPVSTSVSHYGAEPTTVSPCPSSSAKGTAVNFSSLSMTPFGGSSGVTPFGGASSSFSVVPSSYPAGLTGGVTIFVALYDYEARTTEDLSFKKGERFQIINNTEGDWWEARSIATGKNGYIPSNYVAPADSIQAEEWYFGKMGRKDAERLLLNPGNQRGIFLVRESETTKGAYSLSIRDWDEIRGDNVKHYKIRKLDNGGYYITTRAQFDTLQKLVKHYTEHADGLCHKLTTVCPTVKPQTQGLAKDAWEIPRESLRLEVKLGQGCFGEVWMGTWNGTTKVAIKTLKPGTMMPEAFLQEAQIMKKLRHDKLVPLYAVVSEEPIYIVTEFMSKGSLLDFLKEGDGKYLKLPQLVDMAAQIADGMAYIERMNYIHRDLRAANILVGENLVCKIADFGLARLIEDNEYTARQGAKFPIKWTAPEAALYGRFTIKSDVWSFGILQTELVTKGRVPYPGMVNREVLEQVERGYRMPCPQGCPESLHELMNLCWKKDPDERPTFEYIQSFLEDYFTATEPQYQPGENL", "test": "Upstate kinase Profiler counter-screening", "type": "biochemical", "conditions": "at 1 μM"}, "[3]": {"tested_on": "lymphocyte proliferation (BrdU incorporation)", "experimental": "The samples were collected in tubes containing heparin and shipped to a central laboratory for evaluation. Whole blood from each sample was diluted 1:5 in complete RPMI media and 200 microliter aliquots were added to wells of a 96-well plate. Samples from each time point were either stimulated with PHA (0.01 mg/ml final concentration), or not stimulated. […] Samples were stained with FITC conjugated anti-CD45 antibody. RBC's were lysed and the remaining cells were fixed, permeabilized and treated with DNase. The samples were then incubated with an anti-BrdU antibody. Washed cells were re-suspended and the CD45 and BrdU-positive and −negative populations were detected by FACS. FIGS. 10, 12A, and 12B show the percent of BrdU incorporation for samples taken for various doses."}, "tumor": {"tested_on": "tumor", "conditions": "for Status: 4-week schedule", "excerpt": "Each 28-day dosing cycle comprising once weekly administration for three weeks with a week off."}, "H82 (SCLC)": {"tested_on": "H82 (SCLC)", "test": "xenograft tumor model"}},
  "note": "Where two headings read alike, the source gives them in different places.",
  "data": [
    {"smiles": "CCc1cnn2c(NCc3ccc[n+]([O-])c3)cc(N3CCCC[C@H]3CCO)nc12", "note": "[Formula II]", "values": [
      {"measurement": "tumor growth inhibition", "setting": "[1]; 8 mg/kg IP daily for 10 days", "value": 70, "unit": "%"},
      {"measurement": "tumor growth inhibition", "setting": "[1]; 16 mg/kg IP daily for 10 days", "value": 70, "unit": "%"},
      {"measurement": "tumor growth inhibition", "setting": "[1]; 32 mg/kg IP daily for 10 days", "value": 90, "unit": "%"},
      {"measurement": "tumor growth inhibition", "setting": "[1]; 48 mg/kg IP daily for 10 days", "value": 96, "unit": "%"},
      {"measurement": "50% inhibition level (minimum effective dose)", "setting": "[1]; IP daily for 10 days", "value": "less than 8 mg/kg"},
      {"measurement": "MED", "setting": "[1]; once per day IP for 7 days, dose inducing at least 50% inhibition of tumor growth", "value": 5, "unit": "mg/kg"},
      {"measurement": "exposure level at which caspase activity is maximal", "setting": "[2]", "value": 0.05, "unit": "µM"},
      {"measurement": "% remaining activity", "setting": "AMPK; at 1 μM", "value": 94, "unit": "%"},
      {"measurement": "% remaining activity", "setting": "AMPK; at 10 μM", "value": 82, "unit": "%"},
      {"measurement": "% remaining activity", "setting": "CaMKII; at 1 μM", "value": 102, "unit": "%"},
      {"measurement": "% remaining activity", "setting": "CaMKII; at 10 μM", "value": 91, "unit": "%"},
      {"measurement": "% remaining activity", "setting": "Fes; at 1 μM", "value": 87, "unit": "%"},
      {"measurement": "% remaining activity", "setting": "Fes; at 10 μM", "value": 91, "unit": "%"},
      {"measurement": "% remaining activity", "setting": "PKCα; at 1 μM", "value": 96, "unit": "%"},
      {"measurement": "% remaining activity", "setting": "PKCα; at 10 μM", "value": 94, "unit": "%"},
      {"measurement": "% remaining activity", "setting": "YES", "value": 92, "unit": "%"},
      {"measurement": "% BrdU incorporated at 8 hrs post-infusion", "setting": "[3]; Patient A, 1.85 mg/M2, Pre-Dose 28", "value": 65, "unit": "%"},
      {"measurement": "% BrdU incorporated at 8 hrs post-infusion", "setting": "[3]; Patient B, 3.7 mg/M2, Pre-Dose 10", "value": 13, "unit": "%"},
      {"measurement": "% BrdU incorporated at 8 hrs post-infusion", "setting": "[3]; Patient C, 7.4 mg/M2, Pre-Dose 51", "value": 11, "unit": "%"},
      {"measurement": "% BrdU incorporated at 8 hrs post-infusion", "setting": "[3]; Patient F, 50 mg/M2, Pre-Dose 33", "value": 1, "unit": "%"},
      {"measurement": "% BrdU incorporated at 8 hrs post-infusion", "setting": "[3]; Patient G, 58 mg/M2, Pre-Dose 23", "value": 0.7, "unit": "%"},
      {"measurement": "% BrdU incorporated at 8 hrs post-infusion", "setting": "[3]; Patient H, 41.4 mg/M2, Pre-Dose 41", "value": 45, "unit": "%"},
      {"measurement": "Status", "setting": "tumor; adenoidcystic carcinoma patient, 7.11 mg/m^2, 5 cycles", "value": "disease progression"},
      {"measurement": "Status", "setting": "tumor; melanoma patient, 3.63 mg/m^2, 9 cycles", "value": "disease progression"},
      {"measurement": "Status", "setting": "tumor; prostate patient, 3.63 mg/m^2, 4 cycles", "value": "disease progression"},
      {"measurement": "Status", "setting": "tumor; pseudomyxoma patient, 2.59 mg/m^2, 9 cycles", "value": "off study with stable disease"},
      {"measurement": "tumor markers (FIG. 11, incl. CA125)", "setting": "tumor; pseudomyxoma peritonei patient, after 6 cycles of 28 day treatment at 2.59 mg/m^2", "value": "falling tumor markers"},
      {"measurement": "responses by RECIST criteria in the population", "setting": "tumor; various dosages, 2 hour IV infusion, 28-day dosing cycle", "value": "No complete or partial responses"},
      {"measurement": "body-weight loss over the course of the experiment", "setting": "maximum dosage level (48 mg/kg IP daily for 10 days)", "value": "about 5%"},
      {"measurement": "MTD", "setting": "once per day IP for 7 days, dose inducing 20% loss of body weight", "value": 60, "unit": "mg/kg"},
      {"measurement": "% inhibition observed at dosage of 5 mg/kg Formula II", "setting": "H82 (SCLC); first Formula II column", "value": 56, "unit": "%"},
      {"measurement": "% inhibition observed at dosage of 5 mg/kg Formula II", "setting": "H82 (SCLC); second Formula II column", "value": 65, "unit": "%"}
    ]}
  ]
}
